SMILES strings stand for the structures.

The subject of assay [1] is PacP-LBD mutant (Y86, H100, R105, Y121, K148 and Y167 replaced by alanine). Description: ITC binding to PacP-LBD binding site motif mutant. Also on record: species or system Pectobacterium atrosepticum. Particulars: 36 μM PacP-LBD alanine mutant; 1 mM glycerol 3-phosphate, 2.5 mM glyceraldehyde 3-phosphate. The method, then:
Plasmids for the overexpression of the different proteins were transformed into E. coli BL21(DE3). The resulting strains were grown under continuous stirring (200 rpm) at 30 °C in 2-L Erlenmeyer flasks containing 500 mL of LB medium supplemented with 50 μg/mL kanamycin. At an OD660 of 0.5, protein expression was induced by the addition of 0.1 mM isopropyl β-D-1-thiogalactopyranoside. Growth was continued at 16 °C overnight prior to cell harvesting by centrifugation at 10,000 × g for 20 min. Cell pellets were resuspended in buffer A (Additional file 2: Table S4) and subsequently broken by French press treatment at 62.5 lb/in^2. After centrifugation at 20,000 × g for 30 min, the supernatants were loaded onto 5-mL HisTrap HP columns (Amersham Biosciences) equilibrated with buffer A, and the proteins were eluted with a linear gradient of buffer B (Additional file 2: Table S4). All proteins contain a hexa-histidine tag at the N-terminal extension (Additional file 2: Table S3) and were purified at 4 °C. […]
All experiments were conducted on a VP microcalorimeter (Microcal, MA) at 15 °C for PacP-LBD and at 20 °C for the remaining proteins. […] The mean enthalpies measured from the injection of the ligands into the analysis buffer were subtracted from the raw titration data prior to data analysis with the MicroCal version of ORIGIN. […]

Assay [2] addresses LBD of chemoreceptor R6 (WP_174062248.1). Description: ITC binding to R6-LBD. Also on record: species or system Agrobacterium larrymoorei. Conditions: 20 °C, Nb = no binding. The method, then: (§1) Plasmids for the overexpression of the different proteins were transformed into E. coli BL21(DE3). The resulting strains were grown under continuous stirring (200 rpm) at 30 °C in 2-L Erlenmeyer flasks containing 500 mL of LB medium supplemented with 50 μg/mL kanamycin. At an OD660 of 0.5, protein expression was induced by the addition of 0.1 mM isopropyl β-D-1-thiogalactopyranoside. Growth was continued at 16 °C overnight prior to cell harvesting by centrifugation at 10,000 × g for 20 min. Cell pellets were resuspended in buffer A (Additional file 2: Table S4) and subsequently broken by French press treatment at 62.5 lb/in^2. After centrifugation at 20,000 × g for 30 min, the supernatants were loaded onto 5-mL HisTrap HP columns (Amersham Biosciences) equilibrated with buffer A, and the proteins were eluted with a linear gradient of buffer B (Additional file 2: Table S4). All proteins contain a hexa-histidine tag at the N-terminal extension (Additional file 2: Table S3) and were purified at 4 °C. The purified proteins were dialyzed overnight into the corresponding analysis buffers (Additional file 2: Table S4) for immediate analysis.
(§2) All experiments were conducted on a VP microcalorimeter (Microcal, MA) at 15 °C for PacP-LBD and at 20 °C for the remaining proteins. Proteins were dialyzed into the analysis buffers specified in Additional file 2: Table S4, placed into the sample cell and titrated with aliquots of ligand solutions (1 to 10 mM) freshly prepared in dialysis buffer. The mean enthalpies measured from the injection of the ligands into the analysis buffer were subtracted from the raw titration data prior to data analysis with the MicroCal version of ORIGIN. The data were fitted with the “One binding site model” of ORIGIN.

The next assay has as its system P. atrosepticum SCRI1043. Description: Quantitative capillary chemotaxis assay, wild type. In kind it is cell-based, Pectobacterium atrosepticum. Conditions: wild type SCRI1043, 1 mM ligand, 30 min. The method, then: (§3) Overnight cultures of P. atrosepticum SCRI1043 were grown at 30 °C in minimal medium. At an OD660 of 0.4–0.45, the cultures were washed twice with chemotaxis buffer (50 mM K2HPO4/KH2PO4, 20 μM EDTA, 0.05% (v/v) glycerol, pH 7.0) and diluted to an OD660 of 0.1 in the same buffer. Subsequently, 230 μL of the resulting bacterial suspension was placed into the wells of 96-well plates. One-microliter capillary tubes (P1424, Microcaps; Drummond Scientific) were heat-sealed at one end and filled with either chemotaxis buffer (negative control) or chemotaxis buffer containing PacP ligands at a concentration of 1 mM. The capillaries were immersed in the bacterial suspensions at their open ends. After 30 min at room temperature, the capillaries were removed from the bacterial suspensions, rinsed with sterile water, and the contents were expelled into 1 mL of 40 mM K2HPO4, 15 mM KH2PO4. Serial dilutions were plated onto minimal medium supplemented with 15 mM glucose as the carbon source. The number of colony-forming units was determined after 36 h of incubation at 30 °C. In all the cases, the data were corrected with the number of cells that swam into the buffer-containing capillaries.

In assay [3] the target is LBD of chemoreceptor R10 (WP_028866120.1). Description: ITC binding to R10-LBD. Further details: species or system Psychromonas aquimarina. Conditions: 20 °C, Nb = no binding. The method, then:
as §1, §2

For assay [4], the target named is LBD of chemoreceptor R4 (WP_158281851.1) (Rivihabitans pingtungensis, UniProt A0A318KJN4). The assay can be described thus: ITC binding to R4-LBD. Particulars: 20 °C, Nb = no binding. Further details: species or system Rivicola pingtungensis. Here is the method:
as §1, §2

The nature of a further assay: ITC binding to R7-LBD. Further details: species or system Methyloversatilis discipulorum. Conditions: 20 °C, Nb = no binding. Here is the method: as §1, §2
Assay [5] addresses LBD of chemoreceptor R3 (WP_006464688.1) (Herbaspirillum frisingense, UniProt A0ABU1PC34). Description: ITC binding to R3-LBD. Conditions: 20 °C, Nb = no binding. Here is the method: as §1, §2
Assay [6] has as its system Pectobacterium atrosepticum SCRI1043. The assay can be described thus: Growth experiment, sole phosphorus source. Type of assay: cell-based. Conditions: PFM9 minimal medium, 5 mM ligand, 30 °C, 48 h. Here is the method: (§4) P. atrosepticum SCRI1043 was cultured overnight in phosphate-free M9-based medium (PFM9) supplemented with 20 mM glucose as the carbon source and 500 µM inorganic phosphate as the phosphate source. Cultures were washed and then diluted to an OD600 of 0.02 in PFM9 supplemented with different PacP ligands as the sole carbon or phosphorous source at a final concentration of 5 mM. Subsequently, 200 µL aliquots of these cultures were transferred into microwell plates, which were subsequently grown at 30 °C on a Bioscreen microbiological growth analyzer (Oy Growth Curves Ab Ltd., Helsinki, Finland) for 48 h.

The subject of assay [7] is P. atrosepticum SCRI1043 pacP mutant (MpacP). The assay can be described thus: Quantitative capillary chemotaxis assay, pacP mutant. Particulars: 1 mM ligand. In kind it is cell-based, Pectobacterium atrosepticum.
From the text: A mutant defective in ECA_RS12390 was constructed by homologous recombination using a derivative plasmid of the suicide vector pKNG101. Briefly, a 0.5-kb fragment corresponding to the region encoding the LBD of ECA_RS12390 was amplified by the primers specified in Additional file 2: Table S2 and cloned into pGEM®-T. The resulting plasmid pGEM::ECA_RS12390 was digested with XmaI, and the 0.5-kb insert was cloned into the same site at pKNG101 to generate pKNG101::ECA_RS12390. This plasmid was subsequently transformed into P. atrosepticum SRCI1043 via biparental conjugation using E. coli β2163. All the plasmids were verified by PCR and sequencing. The pETb(+) derivatives encoding the LBD of the different receptors analyzed in this study (Table 1) were purchased from GeneScript. Plasmid pBBR-ECA_RS12390 was constructed by amplifying the pacP gene using the primers detailed in Additional file 2: Table S2 and cloning of the PCR product into the NdeI/BamHI sites of pBBR1MCS2_START. The sequences of the proteins analyzed in this study are provided in Additional file 2: Table S3. The ECA_RS12390 nucleotide sequence is available in the published genome of P. atrosepticum SCRI1043 [60].
as §3

Assay [8] has as its target LBD of chemoreceptor R5 (WP_028444678.1). The assay can be described thus: ITC binding to R5-LBD. Further details: species or system Chitinimonas koreensis. Particulars: 20 °C, Nb = no binding. The method, then: as §1, §2
The target in assay [9] is LBD of chemoreceptor R9 (WP_189529961.1) (Paludibacterium paludis, UniProt A0A918NWY2). The assay can be described thus: ITC binding to R9-LBD. Conditions: 20 °C, Nb = no binding. The method, then: as §1, §2
Chain of LBD of chemoreceptor R9 (WP_189529961.1) (A0A918NWY2 entry or part of it): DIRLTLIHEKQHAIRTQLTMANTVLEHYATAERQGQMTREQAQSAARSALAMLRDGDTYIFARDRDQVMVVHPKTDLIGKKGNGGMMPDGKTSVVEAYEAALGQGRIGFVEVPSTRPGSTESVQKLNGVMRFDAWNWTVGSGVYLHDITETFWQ
In assay [10] the target is ligand binding domain of the chemoreceptor ECA_RS12390 (PacP-LBD, R1, WP_011094075.1) (Pectobacterium atrosepticum, UniProt Q6D464). The assay can be described thus: ITC binding to PacP-LBD. Particulars: 15 °C, Nb = no binding. The method, then:
as §1, §2

For assay [11], the system named is Pectobacterium atrosepticum SCRI1043. The assay can be described thus: Growth experiment, sole carbon source. Conditions: PFM9 minimal medium, 5 mM ligand, 30 °C, 48 h. In kind it is cell-based. The method, then:
as §4

The next assay relates to Bacillus subtilis. Further details: method as in PMID 119030, PMID 500565. Particulars: cited from earlier work.
For assay [12], the system named is Bdellovibrio bacteriovorus. Also on record: method as in PMID 119030, PMID 500565. Particulars: cited from earlier work.

Chain of LBD of chemoreceptor R3 (WP_006464688.1) (A0ABU1PC34 entry or part of it): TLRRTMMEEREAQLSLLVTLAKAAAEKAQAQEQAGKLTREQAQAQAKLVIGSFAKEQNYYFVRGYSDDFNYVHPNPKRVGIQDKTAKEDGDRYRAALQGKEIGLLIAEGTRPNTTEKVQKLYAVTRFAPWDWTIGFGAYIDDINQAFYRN
Chain of ligand binding domain of the chemoreceptor ECA_RS12390 (PacP-LBD, R1, WP_011094075.1) (Q6D464 entry or part of it): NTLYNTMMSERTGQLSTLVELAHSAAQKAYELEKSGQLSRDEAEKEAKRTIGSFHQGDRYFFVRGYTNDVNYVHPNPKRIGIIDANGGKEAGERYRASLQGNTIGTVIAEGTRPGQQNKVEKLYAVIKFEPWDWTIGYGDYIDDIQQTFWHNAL
Chain of LBD of chemoreceptor R4 (WP_158281851.1) (A0A318KJN4 entry or part of it): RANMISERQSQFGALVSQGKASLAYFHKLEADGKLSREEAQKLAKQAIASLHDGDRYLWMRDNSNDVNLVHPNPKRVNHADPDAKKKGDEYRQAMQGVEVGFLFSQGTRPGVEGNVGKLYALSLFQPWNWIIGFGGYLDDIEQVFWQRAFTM

As to `O=CC(O)COP(=O)(O)O` (stereo not drawn) [glyceraldehyde 3-phosphate], the “binding in microcalorimetric titration” value in assay [1] is reported as “absence of binding”. In addition, the KD result in assay [2], in [3], in assay [5], in assay [8] and in [9] was “Nb” each time. Moreover, the results for the “chemotaxis (capillary assay)” value (in the assay with P. atrosepticum SCRI1043; in assay [7]) were “Modest chemoattraction” and “Only glycerol 2-phosphate served as an attractant for the mutant”, respectively. In addition, the Kd in assay [4] amounted to 100 ± 2 µM; in “ITC binding to R7-LBD”, 126 ± 9 µM; in assay [10], 58 ± 2 µM. For the same molecule, in assay [6], the “growth as sole phosphorus source” value is reported as “devoid of apparent metabolic value”. Further, in assay [11], the “growth as sole carbon source” value is on record as “devoid of apparent metabolic value”.
Regarding `O=P(O)(O)OC(CO)CO` [glycerol 2-phosphate], the chemotaxis entry (with Bacillus subtilis; in assay [12]) was “weak chemotaxis” throughout. Further, the KD entry was “Nb” in assay [2]; “Nb” in [3]; “bound” in [5]; “Nb” in assay [8]; “Nb” in assay [9]. The “chemotaxis (capillary assay)” value is “Modest chemoattraction” in the assay on P. atrosepticum SCRI1043 and “served as an attractant” in assay [7]. Also, the Kd in assay [4] was found to be 60 ± 2 µM; in the assay “ITC binding to R7-LBD”, 223 ± 45 µM; in assay [5], 36 ± 2 µM; in [10], 72 ± 2 µM. For the same molecule, in assay [6], the “growth as sole phosphorus source” value was “permitted growth”.

The record behind these values is publication PMC12395807, “Chemoreceptor family in plant-associated bacteria responds preferentially to the plant signal molecule glycerol 3-phosphate” (Genome Biology, 2025).
